# Test results as given in US20250270610A1, “Improving the Efficiency of PAL-Catalyzed Protein Ligation By A Cascade Enzymatic Scheme” (priority 2022, published 2025).
# Legend:
# EGFR-positive A431 cells = experiment: Live cell confocal imaging of binding to A431 cells; format: cell-based; details: confocal fluorescence microscopy, 100 nM, 30 min on ice; FIG. 21
# Method: ZEGFR-FC-GFP staining of the membrane was much brighter than that for GFP when the top left panel of each block is compared. The plasma membrane was stained with PKH26 red-fluorescent dye and is shown in the lower left panel and merged image of each block. Scale bar=20 μm.
# To visualize ZEGFR-Fc-GFP binding activities, A431 and MCF-7 cells were seeded on an 8-well chamber slide (ibidi, USA) and incubated at 37° C. under 5% CO2 overnight. The cells were stained with 2 μM PKH26 red-fluorescent dye (Sigma, USA) for 10 min at 37° C. The stained cells were then incubated with ZEGFR-Fc-GFP (100nM) and GFP (100nM) on ice for 30 min. After incubation, the cells were washed with chilled PBS for three times and fixed with cold 4% formaldehyde for 15 min. The fixed cells were imaged by the LSM 980 confocal microscope (Zeiss, Germany). Microscopic key settings are as follows: 1) excitation laser wavelengths: 488 nm and 561 nm; 2) emission fillers: 507-552 nm and 575-620 nm; 3) imaging mode: Z-stack. The 3D Z-stack images were processed into 2D images by the technique MIP (maximum intensity projection) using the Zen software (Zeiss, Germany).
# [1] = test system: A431 cells which overexpresses EGFR; experiment: Flow cytometry assay of binding to A431 cells; format: cell-based; details: 100 nM, 30 min on ice; FIG. 5b and c (confocal and flow cytometry)
# Method: FIG. 20 depicts the fluorescence intensity (measured by flow cytometry, λex=488 nm) of untreated A431 and MCF7 cells (ctrl) shown in dark grey fill (Blank), and cells treated with either GFP (100 nM, 30 min), or with ZEGFR-Fc-GFP (100 nM, 30 min) (shown by arrow), respectively. Forward scatter (FSC-A) versus side scatter (SSC-A) were used to gate intact cells.
# To study binding capacities of ZEGFR-Fc-GFP, A-431 (ATCC, USA) and MCF-7 (ATCC, US) live cells were washed three times with PBS (HyClone, USA), trypsinized by 0.05% Trypsin-EDTA (Gibco, USA), and then resuspended in chilled DMEM (Gibco, USA) with 10% FBS (Gibco, USA). One million cells of each cell line were then incubated with ZEGFR-Fc-GFP (100 nM) and GFP (100 nM) on ice for 30 min. After incubation, the cells were washed with chilled PBS for three times and analyzed by the Fortessa X-20 flow cytometer (BD, USA). The cytometer was set to record 10,000 events per sample, to excite the fluorophore with 488 nm laser, and to collect emitting fluorescent signals in 530/30 nm. The generated raw data were analyzed by Flowjo™ 10 (BD, USA).
substance,measurement,setting,value
ZEGFR-Fc-GFP: dual-ligated product of dimeric fusion protein ZEGFR-Fc-NQL (affibody ZEGFR and IgG Fc domain) with GI-GGGSGGGS-GFP,staining of the membrane compared with GFP,EGFR-positive A431 cells,much brighter
same,binding towards A431 cells,[1],specific binding
